Measured values: PMC8583996, “Berberine Inhibits MDA-MB-231 Cells as an Agonist of G Protein-Coupled Estrogen Receptor 1” (International Journal of Molecular Sciences, 2021)

Target: T1, human GPER1 (Homo sapiens, UniProt Q99527)
T1 construct: Sf9 baculovirus; Ni-NTA (tag not described) and size exclusion; DDM/CHS; primarily monomer
Experiment: intrinsic fluorescence quenching titration
Type: binding

T1 sequence (Q99527 whole entry): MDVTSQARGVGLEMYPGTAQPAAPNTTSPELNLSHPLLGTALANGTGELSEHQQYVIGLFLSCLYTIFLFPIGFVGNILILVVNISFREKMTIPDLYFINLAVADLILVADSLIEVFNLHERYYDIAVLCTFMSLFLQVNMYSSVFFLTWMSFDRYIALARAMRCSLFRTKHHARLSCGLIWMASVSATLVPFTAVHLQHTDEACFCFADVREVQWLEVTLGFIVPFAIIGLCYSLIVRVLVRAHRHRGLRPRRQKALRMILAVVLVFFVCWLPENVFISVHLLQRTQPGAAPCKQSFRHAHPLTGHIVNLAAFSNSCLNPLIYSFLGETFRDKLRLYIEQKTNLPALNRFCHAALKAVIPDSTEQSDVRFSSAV

COc1ccc2cc3[n+](cc2c1OC)CCc1cc2c(cc1-3)OCO2 [BBR]
Kd: 0.89 nM
